Results taken from patent publication US20250064773A1, “TARGETING ERO1 ALPHA WITH AURONE DERIVATIVES” (West Virginia University Board of Governors on behalf of …, priority 2021, published 2025).

Target: T1, ERO1α (Homo sapiens, UniProt Q96HE7)
T1 construct: endogenous in cells; host or cells: PC-9
T1 sequence (Q96HE7 24-468): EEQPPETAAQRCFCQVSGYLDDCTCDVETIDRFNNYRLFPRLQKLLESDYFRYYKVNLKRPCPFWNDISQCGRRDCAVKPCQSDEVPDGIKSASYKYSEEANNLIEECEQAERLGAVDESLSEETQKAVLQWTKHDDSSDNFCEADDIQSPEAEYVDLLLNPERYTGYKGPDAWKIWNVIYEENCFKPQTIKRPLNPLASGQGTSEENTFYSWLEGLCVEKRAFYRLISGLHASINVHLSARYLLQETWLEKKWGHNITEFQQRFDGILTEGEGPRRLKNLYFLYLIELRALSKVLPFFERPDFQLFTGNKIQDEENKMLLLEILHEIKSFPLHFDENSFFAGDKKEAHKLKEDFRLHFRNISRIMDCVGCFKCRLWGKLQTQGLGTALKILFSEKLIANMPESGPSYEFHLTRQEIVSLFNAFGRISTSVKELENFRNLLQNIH
Assay: Cellular thermal shift assay (CETSA) in PC-9 cells, ERO1α
Format: cell-based
Settings: 100 μM, 1 hour at 37° C.
Description: To date activity of T151742 towards other flavoenzymes has not been identified at this time. We utilized the Cellular Thermal Shift Assay (CETSA) to determine target engagement of T151742 in vitro using the non-small cell lung cancer (NSCLC) cell line PC-9. The EGFR driven PC-9 cell line was chosen as new treatment strategies are needed in EGFR driven NSCLC as most patients relapse and become resistant to current targeted therapies with development of further mutations such as T790M, C797S as well as emergence of EGFR independent tumors^42, 43. […] First, we determined the aggregation temperature (Tagg) of ERO1α, ERO1β, and LSD-1, which are all FAD dependent enzymes and potential in vitro targets of T15742. […]
Upon addition of T151742, Tagg was quantified for ERO1α, ERO1β, and LSD-1. Quantification of the average of n=3 independent experiments based on western blot analysis for ERO1α, ERO1β, and LSD-1. […] Cellular viability was determined by MTT assay. n=3 independent experiments performed in quadruplicates. ****p<0.0001; by two-way ANOVA.
Cell Lines: PC-9 cell line used was obtained from Sigma Aldrich and grown in RPMI 1640 medium with 10% fetal bovine serum and 1% penicillin/streptomycin. […] Plate was then read on the BioTek Cytation 5 at 530/590 nm. […]

SMILES: CN(C)c1ccc(/C=C2\Oc3cc(O)ccc3C2=O)cc1 [Compound T151742]
- Tagg for ERO1α: > 60 °C
- shift of Tagg for ERO1α: ~6 degrees
